Source: patent US20240398793A1, “Methods of Treating Lymphedema” (Celltaxis, LLC, priority 2021, published 2024)

Assays:
[1] = Serious adverse reactions, Phase 2 Acebilustat safety population; assay type: in vivo, human; settings: Phase 2, N = 217
Description: SARs reported in the completed Phase 2 studies and suspected to be potentially related to drug treatment are tabulated below.

[2] = Most common treatment emergent adverse events, safety population

**Q.** For `O=C(O)c1ccc(CN2C[C@@H]3C[C@H]2CN3Cc2ccc(Oc3ccc(-c4ncco4)cc3)cc2)cc1` [Acebilustat, 4-{[(1S,4S)-5-({4-[4-oxazol-2-yl-phenoxy]phenyl}methyl)-2,5-diazabicyclo[2.2.1]heptan-2-yl]methyl}benzoic acid], which “SAR Distal intestinal obstruction syndrome, # of Subjects” value [1] is on record?
**A.** 1

**Q.** And the “SAR Distal intestinal obstruction syndrome, Frequency” value [1]?
**A.** 0.5%

**Q.** And the “SAR Distal intestinal obstruction syndrome, Intensity Mild” value [1]?
**A.** 0

**Q.** What about the “SAR Distal intestinal obstruction syndrome, Intensity Moderate” value [1] of the same compound?
**A.** 0

**Q.** What about the “SAR Distal intestinal obstruction syndrome, Intensity Severe” value [1] of the same compound?
**A.** 1

**Q.** What about the “SAR Drug Induced Liver Injury, # of Subjects” value [1] of the same compound?
**A.** 1

**Q.** What about the “SAR Drug Induced Liver Injury, Frequency” value [1] of the same compound?
**A.** 0.5%

**Q.** And the “SAR Drug Induced Liver Injury, Intensity Mild” value [1]?
**A.** 0

**Q.** What about the “SAR Drug Induced Liver Injury, Intensity Moderate” value [1] of the same compound?
**A.** 0

**Q.** What about the “SAR Drug Induced Liver Injury, Intensity Severe” value [1] of the same compound?
**A.** 1

**Q.** What about the “SAR Gastrointestinal disorders, # of Subjects” value [1] of the same compound?
**A.** 1

**Q.** What about the “SAR Gastrointestinal disorders, Frequency” value [1] of the same compound?
**A.** 0.5%

**Q.** What about the “SAR Gastrointestinal disorders, Intensity Mild” value [1] of the same compound?
**A.** 0

**Q.** And the “SAR Gastrointestinal disorders, Intensity Moderate” value [1]?
**A.** 0

**Q.** And the “SAR Gastrointestinal disorders, Intensity Severe” value [1]?
**A.** 1

**Q.** And the “SAR Hepatobiliary Disorders, # of Subjects” value [1]?
**A.** 1

**Q.** What about the “SAR Hepatobiliary Disorders, Frequency” value [1] of the same compound?
**A.** 0.5%

**Q.** What about the “SAR Hepatobiliary Disorders, Intensity Mild” value [1] of the same compound?
**A.** 0

**Q.** And the “SAR Hepatobiliary Disorders, Intensity Moderate” value [1]?
**A.** 0

**Q.** And the “SAR Hepatobiliary Disorders, Intensity Severe” value [1]?
**A.** 1

**Q.** And the “SAR Infections and infestations, # of Subjects” value [1]?
**A.** 1

**Q.** And the “SAR Infections and infestations, Frequency” value [1]?
**A.** 0.5%

**Q.** What about the “SAR Infections and infestations, Intensity Mild” value [1] of the same compound?
**A.** 0

**Q.** And the “SAR Infections and infestations, Intensity Moderate” value [1]?
**A.** 0

**Q.** What about the “SAR Infections and infestations, Intensity Severe” value [1] of the same compound?
**A.** 1

**Q.** And the “SAR Infective pulmonary exacerbation of cystic fibrosis, # of Subjects” value [1]?
**A.** 1

**Q.** What about the “SAR Infective pulmonary exacerbation of cystic fibrosis, Frequency” value [1] of the same compound?
**A.** 0.5%

**Q.** And the “SAR Infective pulmonary exacerbation of cystic fibrosis, Intensity Mild” value [1]?
**A.** 0

**Q.** What about the “SAR Infective pulmonary exacerbation of cystic fibrosis, Intensity Moderate” value [1] of the same compound?
**A.** 0

**Q.** What about the “SAR Infective pulmonary exacerbation of cystic fibrosis, Intensity Severe” value [1] of the same compound?
**A.** 1

**Q.** And the “Abdominal pain TEAE, %” value ([2]; 50 mg (N = 67))?
**A.** (4.5%)

**Q.** And the “Abdominal pain upper TEAE, %” value ([2]; 50 mg (N = 67))?
**A.** (10.4%)

**Q.** And the “Arthralgia TEAE, %” value ([2]; 50 mg (N = 67))?
**A.** (4.5%)

**Q.** What about the “Back pain TEAE, %” value ([2]; 50 mg (N = 67)) of the same compound?
**A.** (6.0%)

**Q.** And the “Chest discomfort TEAE, %” value ([2]; 50 mg (N = 67))?
**A.** (4.5%)

**Q.** And the “Constipation TEAE, %” value ([2]; 50 mg (N = 67))?
**A.** (6.0%)

**Q.** And the “Cough TEAE, %” value ([2]; 50 mg (N = 67))?
**A.** (40.3%)

**Q.** What about the “Diarrhoea TEAE, %” value ([2]; 50 mg (N = 67)) of the same compound?
**A.** (13.4%)

**Q.** What about the “Distal intestinal obstruction syndrome TEAE, %” value ([2]; 50 mg (N = 67)) of the same compound?
**A.** (6.0%)

**Q.** What about the “Dyspnoea TEAE, %” value ([2]; 50 mg (N = 67)) of the same compound?
**A.** (9.0%)

**Q.** What about the “Epistaxis TEAE, %” value ([2]; 50 mg (N = 67)) of the same compound?
**A.** (6.0%)

**Q.** What about the “Fatigue TEAE, %” value ([2]; 50 mg (N = 67)) of the same compound?
**A.** (13.4%)

**Q.** What about the “Forced expiratory volume decreased TEAE, %” value ([2]; 50 mg (N = 67)) of the same compound?
**A.** (6.0%)

**Q.** And the “Gastroenteritis TEAE, %” value ([2]; 50 mg (N = 67))?
**A.** (1.5%)

**Q.** What about the “Gastrointestinal disorders TEAE, %” value ([2]; 50 mg (N = 67)) of the same compound?
**A.** (40.3%)

**Q.** What about the “General disorders and administration site conditions TEAE, %” value ([2]; 50 mg (N = 67)) of the same compound?
**A.** (35.8%)

**Q.** And the “Haemoptysis TEAE, %” value ([2]; 50 mg (N = 67))?
**A.** (25.4%)

**Q.** What about the “Headache TEAE, %” value ([2]; 50 mg (N = 67)) of the same compound?
**A.** (23.9%)

**Q.** What about the “Infections and infestations TEAE, %” value ([2]; 50 mg (N = 67)) of the same compound?
**A.** (88.1%)

**Q.** And the “Influenza TEAE, %” value ([2]; 50 mg (N = 67))?
**A.** (4.5%)

**Q.** What about the “Investigations TEAE, %” value ([2]; 50 mg (N = 67)) of the same compound?
**A.** (29.9%)

**Q.** And the “Musculoskeletal and connective tissue disorders TEAE, %” value ([2]; 50 mg (N = 67))?
**A.** (19.4%)

**Q.** And the “Nasopharyngitis TEAE, %” value ([2]; 50 mg (N = 67))?
**A.** (16.4%)

**Q.** What about the “Nausea TEAE, %” value ([2]; 50 mg (N = 67)) of the same compound?
**A.** (7.5%)

**Q.** What about the “Nervous system disorders TEAE, %” value ([2]; 50 mg (N = 67)) of the same compound?
**A.** (32.8%)

**Q.** And the “No. of subjects with at least one TEAE, %” value ([2]; 50 mg (N = 67))?
**A.** (100.0%)

**Q.** And the “Oropharyngeal pain TEAE, %” value ([2]; 50 mg (N = 67))?
**A.** (10.4%)

**Q.** What about the “Paranasal sinus hypersecretion TEAE, %” value ([2]; 50 mg (N = 67)) of the same compound?
**A.** (7.5%)

**Q.** And the “Pyrexia TEAE, %” value ([2]; 50 mg (N = 67))?
**A.** (9.0%)

**Q.** What about the “Rales TEAE, %” value ([2]; 50 mg (N = 67)) of the same compound?
**A.** (1.5%)

**Q.** And the “Rash TEAE, %” value ([2]; 50 mg (N = 67))?
**A.** (4.5%)

**Q.** And the “Respiratory, thoracic and mediastinal disorders TEAE, %” value ([2]; 50 mg (N = 67))?
**A.** (70.1%)

**Q.** And the “Rhinitis TEAE, %” value ([2]; 50 mg (N = 67))?
**A.** (6.0%)

**Q.** And the “Rhinorrhoea TEAE, %” value ([2]; 50 mg (N = 67))?
**A.** (9.0%)

**Q.** And the “Sinusitis TEAE, %” value ([2]; 50 mg (N = 67))?
**A.** (4.5%)

**Q.** What about the “Skin and subcutaneous tissue disorders TEAE, %” value ([2]; 50 mg (N = 67)) of the same compound?
**A.** (11.9%)

**Q.** And the “Sputum abnormal TEAE, %” value ([2]; 50 mg (N = 67))?
**A.** (6.0%)

**Q.** And the “Sputum increased TEAE, %” value ([2]; 50 mg (N = 67))?
**A.** (19.4%)

**Q.** What about the “Abdominal pain TEAE, %” value ([2]; 100 mg (N = 66)) of the same compound?
**A.** (6.1%)

**Q.** And the “Abdominal pain upper TEAE, %” value ([2]; 100 mg (N = 66))?
**A.** (4.5%)

**Q.** And the “Alanine aminotransferase increased TEAE, %” value ([2]; 100 mg (N = 66))?
**A.** (6.1%)

**Q.** And the “Arthralgia TEAE, %” value ([2]; 100 mg (N = 66))?
**A.** (7.6%)

**Q.** What about the “Back pain TEAE, %” value ([2]; 100 mg (N = 66)) of the same compound?
**A.** (1.5%)

**Q.** What about the “Chest discomfort TEAE, %” value ([2]; 100 mg (N = 66)) of the same compound?
**A.** (12.1%)

**Q.** What about the “Constipation TEAE, %” value ([2]; 100 mg (N = 66)) of the same compound?
**A.** (1.5%)

**Q.** What about the “Cough TEAE, %” value ([2]; 100 mg (N = 66)) of the same compound?
**A.** (43.9%)

**Q.** What about the “Diarrhoea TEAE, %” value ([2]; 100 mg (N = 66)) of the same compound?
**A.** (7.6%)

**Q.** And the “Distal intestinal obstruction syndrome TEAE, %” value ([2]; 100 mg (N = 66))?
**A.** (3.0%)

**Q.** What about the “Dyspnoea TEAE, %” value ([2]; 100 mg (N = 66)) of the same compound?
**A.** (7.6%)

**Q.** And the “Epistaxis TEAE, %” value ([2]; 100 mg (N = 66))?
**A.** (4.5%)

**Q.** What about the “Fatigue TEAE, %” value ([2]; 100 mg (N = 66)) of the same compound?
**A.** (13.6%)

**Q.** What about the “Forced expiratory volume decreased TEAE, %” value ([2]; 100 mg (N = 66)) of the same compound?
**A.** (7.6%)

**Q.** What about the “Gastroenteritis TEAE, %” value ([2]; 100 mg (N = 66)) of the same compound?
**A.** (6.1%)

**Q.** What about the “Gastrointestinal disorders TEAE, %” value ([2]; 100 mg (N = 66)) of the same compound?
**A.** (30.3%)

**Q.** What about the “General disorders and administration site conditions TEAE, %” value ([2]; 100 mg (N = 66)) of the same compound?
**A.** (36.4%)

**Q.** What about the “Haemoptysis TEAE, %” value ([2]; 100 mg (N = 66)) of the same compound?
**A.** (18.2%)

**Q.** What about the “Headache TEAE, %” value ([2]; 100 mg (N = 66)) of the same compound?
**A.** (13.6%)

**Q.** And the “Infections and infestations TEAE, %” value ([2]; 100 mg (N = 66))?
**A.** (90.9%)

**Q.** What about the “Influenza TEAE, %” value ([2]; 100 mg (N = 66)) of the same compound?
**A.** (7.6%)

**Q.** What about the “Investigations TEAE, %” value ([2]; 100 mg (N = 66)) of the same compound?
**A.** (34.8%)

**Q.** And the “Musculoskeletal and connective tissue disorders TEAE, %” value ([2]; 100 mg (N = 66))?
**A.** (16.7%)

**Q.** What about the “Nasopharyngitis TEAE, %” value ([2]; 100 mg (N = 66)) of the same compound?
**A.** (21.2%)

**Q.** And the “Nausea TEAE, %” value ([2]; 100 mg (N = 66))?
**A.** (12.1%)

**Q.** And the “Nervous system disorders TEAE, %” value ([2]; 100 mg (N = 66))?
**A.** (22.7%)

**Q.** What about the “No. of subjects with at least one TEAE, %” value ([2]; 100 mg (N = 66)) of the same compound?
**A.** (100.0%)

**Q.** What about the “Oropharyngeal pain TEAE, %” value ([2]; 100 mg (N = 66)) of the same compound?
**A.** (13.6%)

**Q.** And the “Pyrexia TEAE, %” value ([2]; 100 mg (N = 66))?
**A.** (12.1%)

**Q.** What about the “Rales TEAE, %” value ([2]; 100 mg (N = 66)) of the same compound?
**A.** (6.1%)

**Q.** What about the “Rash TEAE, %” value ([2]; 100 mg (N = 66)) of the same compound?
**A.** (9.1%)

**Q.** What about the “Respiratory, thoracic and mediastinal disorders TEAE, %” value ([2]; 100 mg (N = 66)) of the same compound?
**A.** (75.8%)

**Q.** What about the “Rhinitis TEAE, %” value ([2]; 100 mg (N = 66)) of the same compound?
**A.** (4.5%)

**Q.** What about the “Rhinorrhoea TEAE, %” value ([2]; 100 mg (N = 66)) of the same compound?
**A.** (7.6%)

**Q.** And the “Sinusitis TEAE, %” value ([2]; 100 mg (N = 66))?
**A.** (10.6%)

**Q.** And the “Skin and subcutaneous tissue disorders TEAE, %” value ([2]; 100 mg (N = 66))?
**A.** (24.2%)

**Q.** And the “Sputum increased TEAE, %” value ([2]; 100 mg (N = 66))?
**A.** (10.6%)
